Laboratory results as given in patent publication US12281363B2, “Methods for detecting antiviral-drug resistant virus” (Secretary of State for Health and Social Care, priority 2018, dated 2025).
Like-named read-outs stand apart in the source and are kept apart here.

Test system: HSV-1
Assay: Plaque reduction assay, HSV-1 clinical isolates on Vero cells
Format: cell-based
Details: Human alphaherpesvirus 1, Vero
Procedure, shortened: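 Susceptibility of HSV-1 isolates was read as percent plaque reduction versus no-drug control, counted on fixed, crystal-violet-stained sub-confluent Vero cells infected at 75 PFU/well beneath CMC. Intermediate resistance lies between cut-offs ACV <3/>40 μM, PCV <10/>40 μM, CDV <24/>30 μM, FOS <250/>400 μM.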

Q: Which results are given for `Nc1nc2c(ncn2CCC(CO)CO)c(=O)[nH]1` [Penciclovir, penciclovir]?
A: IC50 (72 h, isolate HPG053, HSV-1 pol L802R + A834S (2405T>G, 2500G>T), also TK R176W, read-out: Drug susceptibility (IC50 value)): > 160 µM; IC50 (isolate HPG002, HSV-1 pol E992K (2974G>A), also TK insert (G) nt 430-436, pol A1169T, read-out: Drug susceptibility (IC50 value)): > 160 µM; IC50 (isolate HPG002, HSV-1 pol E992K (2974G>A), also TK insert (G) nt 430-436, pol A1169T, read-out: Drug susceptibility Penciclovir (PCV)): > 40 µM; IC50 (isolate HPG003, HSV-1 TK Y172S (515A>C), read-out: Drug susceptibility (IC50 value)): 106 µM; IC50 (isolate HPG003, HSV-1 TK Y172S (515A>C), read-out: Drug susceptibility Penciclovir (PCV)): > 40 µM; IC50 (isolate HPG005, HSV-1 TK A37V (110C>T), read-out: Drug susceptibility (IC50 value)): 5.19 µM; IC50 (isolate HPG005, HSV-1 TK A37V (110C>T), read-out: Drug susceptibility Penciclovir (PCV)): < 10 µM; IC50 (isolate HPG008, HSV-1 TK V204G (611T>G), read-out: Drug susceptibility (IC50 value)): > 160 µM; IC50 (isolate HPG008, HSV-1 TK V204G (611T>G), read-out: Drug susceptibility Penciclovir (PCV)): > 40 µM; IC50 (isolate HPG009, HSV-1 pol E992K (2974G>A), also pol A1169T, read-out: Drug susceptibility (IC50 value)): 4.05 µM; IC50 (isolate HPG009, HSV-1 pol E992K (2974G>A), also pol A1169T, read-out: Drug susceptibility Penciclovir (PCV)): < 10 µM; IC50 (isolate HPG010, HSV-1 TK Q125* (373C>T), read-out: Drug susceptibility (IC50 value)): 87.1 µM; IC50 (isolate HPG010, HSV-1 TK Q125* (373C>T), read-out: Drug susceptibility Penciclovir (PCV)): > 40 µM; IC50 (isolate HPG011, HSV-1 TK Q125* (373C>T), read-out: Drug susceptibility (IC50 value)): 108 µM; IC50 (isolate HPG011, HSV-1 TK Q125* (373C>T), read-out: Drug susceptibility Penciclovir (PCV)): > 40 µM; IC50 (isolate HPG013, HSV-1 TK M121I (363G>A), read-out: Drug susceptibility (IC50 value)): 105 µM; IC50 (isolate HPG013, HSV-1 TK M121I (363G>A), read-out: Drug susceptibility Penciclovir (PCV)): > 40 µM; IC50 (isolate HPG013, HSV-1 pol D83A (248A>C), also TK M121I, pol A1169T, read-out: Drug susceptibility (IC50 value)): 105 µM; IC50 (isolate HPG013, HSV-1 pol D83A (248A>C), also TK M121I, pol A1169T, read-out: Drug susceptibility Penciclovir (PCV)): > 40 µM; IC50 (isolate HPG014, HSV-1 pol A1115T (3343G>A), read-out: Drug susceptibility (IC50 value)): 5.66 µM; IC50 (isolate HPG014, HSV-1 pol A1115T (3343G>A), read-out: Drug susceptibility Penciclovir (PCV)): < 10 µM; IC50 (isolate HPG014, HSV-1 pol R993C (2977C>T), read-out: Drug susceptibility (IC50 value)): 5.66 µM; IC50 (isolate HPG014, HSV-1 pol R993C (2977C>T), read-out: Drug susceptibility Penciclovir (PCV)): < 10 µM; IC50 (isolate HPG014, HSV-1 pol T54A (160A>G), read-out: Drug susceptibility (IC50 value)): 5.66 µM; IC50 (isolate HPG014, HSV-1 pol T54A (160A>G), read-out: Drug susceptibility Penciclovir (PCV)): < 10 µM; IC50 (isolate HPG015, HSV-1 pol 966stop or F965_I966insF (2892_2893insT to 2895_2896insT), read-out: Drug susceptibility (IC50 value)): 8.48 µM; IC50 (isolate HPG015, HSV-1 pol 966stop or F965_I966insF (2892_2893insT to 2895_2896insT), read-out: Drug susceptibility Penciclovir (PCV)): < 10 µM; IC50 (isolate HPG018, HSV-1 TK frameshift (881delC to 885delC), read-out: Drug susceptibility (IC50 value)): 117 µM; IC50 (isolate HPG018, HSV-1 TK frameshift (881delC to 885delC), read-out: Drug susceptibility Penciclovir (PCV)): > 40 µM; IC50 (isolate HPG018, HSV-1 pol P1199T (3595C>A), also TK deletion (C) nt 881-885, pol A1169T, read-out: Drug susceptibility (IC50 value)): 117 µM; IC50 (isolate HPG018, HSV-1 pol P1199T (3595C>A), also TK deletion (C) nt 881-885, pol A1169T, read-out: Drug susceptibility Penciclovir (PCV)): > 40 µM; IC50 (isolate HPG019, HSV-1 pol K750T (2249A>C), also TK deletion (G) nt 430-436, pol A1169T, read-out: Drug susceptibility (IC50 value)): > 160 µM; IC50 (isolate HPG019, HSV-1 pol K750T (2249A>C), also TK deletion (G) nt 430-436, pol A1169T, read-out: Drug susceptibility Penciclovir (PCV)): > 40 µM; IC50 (isolate HPG020, HSV-1 pol S911N (2732G>A), also pol A1169T, read-out: Drug susceptibility (IC50 value)): 2.48 µM; IC50 (isolate HPG020, HSV-1 pol S911N (2732G>A), also pol A1169T, read-out: Drug susceptibility Penciclovir (PCV)): < 10 µM; IC50 (isolate HPG021, HSV-1 pol R681Q (2042G>A), also TK deletion (G) nt 430-436, read-out: Drug susceptibility (IC50 value)): > 160 µM; IC50 (isolate HPG021, HSV-1 pol R681Q (2042G>A), also TK deletion (G) nt 430-436, read-out: Drug susceptibility Penciclovir (PCV)): > 40 µM; IC50 (isolate HPG021, HSV-1 pol T839A (2515A>G), also TK deletion (G) nt 430-436, read-out: Drug susceptibility (IC50 value)): > 160 µM; IC50 (isolate HPG021, HSV-1 pol T839A (2515A>G), also TK deletion (G) nt 430-436, read-out: Drug susceptibility Penciclovir (PCV)): > 40 µM; IC50 (isolate HPG025, HSV-1 pol E850Q (2548G>C), also TK R216C, read-out: Drug susceptibility (IC50 value)): 118 µM; IC50 (isolate HPG025, HSV-1 pol E850Q (2548G>C), also TK R216C, read-out: Drug susceptibility Penciclovir (PCV)): > 40 µM; IC50 (isolate HPG026, HSV-1 pol E850Q (2548G>C), also TK R216C, pol A1169T, read-out: Drug susceptibility (IC50 value)): 35 µM; IC50 (isolate HPG026, HSV-1 pol E850Q (2548G>C), also TK R216C, pol A1169T, read-out: Drug susceptibility Penciclovir (PCV)): 10 to 40 µM; IC50 (isolate HPG027, HSV-1 TK V204G (611T>G), also pol S914L, A1169AT, read-out: Drug susceptibility (IC50 value)): > 160 µM; IC50 (isolate HPG027, HSV-1 TK V204G (611T>G), also pol S914L, A1169AT, read-out: Drug susceptibility Penciclovir (PCV)): > 40 µM; IC50 (isolate HPG027, HSV-1 pol S914L (2741C>T), also TK V204G, pol A1169T, read-out: Drug susceptibility (IC50 value)): > 160 µM; IC50 (isolate HPG027, HSV-1 pol S914L (2741C>T), also TK V204G, pol A1169T, read-out: Drug susceptibility Penciclovir (PCV)): > 40 µM; IC50 (isolate HPG029, HSV-1 TK Y172S (515A>C), read-out: Drug susceptibility (IC50 value)): > 160 µM; IC50 (isolate HPG029, HSV-1 TK Y172S (515A>C), read-out: Drug susceptibility Penciclovir (PCV)): > 40 µM; IC50 (isolate HPG031, HSV-1 pol E1120A (3359A>C), also a TK resistance mutation (footnote e), read-out: Drug susceptibility (IC50 value)): 156 µM; IC50 (isolate HPG031, HSV-1 pol E1120A (3359A>C), also a TK resistance mutation (footnote e), read-out: Drug susceptibility Penciclovir (PCV)): > 40 µM; IC50 (isolate HPG031, HSV-1 pol G139R (415G>C or 415G>A), also a TK resistance mutation (footnote e), read-out: Drug susceptibility (IC50 value)): 156 µM; IC50 (isolate HPG031, HSV-1 pol G139R (415G>C or 415G>A), also a TK resistance mutation (footnote e), read-out: Drug susceptibility Penciclovir (PCV)): > 40 µM; IC50 (isolate HPG032, HSV-1 TK 183* (437_438insA), read-out: Drug susceptibility (IC50 value)): > 160 µM; IC50 (isolate HPG032, HSV-1 TK 183* (437_438insA), read-out: Drug susceptibility Penciclovir (PCV)): > 40 µM
